The experiment concerns the target T1, Recombinant human KIF18A (1-467His-tagged) protein (Homo sapiens, UniProt Q8NI77).
T1 construct: Recombinant human KIF18A (1-467His-tagged) protein; His; made in house
Put plainly: KIF18A enzyme assay (microtubule-stimulated ATPase activity, ADP-Glo). It counts as biochemical. The following applies: 30 nM KIF18A, 75 μM ATP, 30 μg/mL pig microtubules; read-out: Inhibitory activity against KIF18A IC50. The essentials: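 Buffer 15 mM Tris pH 7.5, 10 mM MgCl2, 0.01% Pluronic F-68, 1 μM paclitaxel, 30 μg/mL pig microtubules; reactions at room temperature. IC50 from inhibition relative to DMSO.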
T1 sequence (Q8NI77 1-467): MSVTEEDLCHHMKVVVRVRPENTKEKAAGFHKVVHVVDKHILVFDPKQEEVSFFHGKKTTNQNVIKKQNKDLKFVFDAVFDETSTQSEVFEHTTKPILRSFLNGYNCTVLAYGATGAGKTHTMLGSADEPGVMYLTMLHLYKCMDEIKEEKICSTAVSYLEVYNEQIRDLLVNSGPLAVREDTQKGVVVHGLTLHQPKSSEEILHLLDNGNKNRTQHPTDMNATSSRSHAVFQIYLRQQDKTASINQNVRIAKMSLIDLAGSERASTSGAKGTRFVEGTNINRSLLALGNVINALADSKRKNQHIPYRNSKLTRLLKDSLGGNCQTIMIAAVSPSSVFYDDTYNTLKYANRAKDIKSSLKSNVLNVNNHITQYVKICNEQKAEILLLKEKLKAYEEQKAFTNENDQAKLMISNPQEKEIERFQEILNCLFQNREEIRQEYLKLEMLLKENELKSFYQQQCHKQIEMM
T1 sequence (P02550 whole entry partner): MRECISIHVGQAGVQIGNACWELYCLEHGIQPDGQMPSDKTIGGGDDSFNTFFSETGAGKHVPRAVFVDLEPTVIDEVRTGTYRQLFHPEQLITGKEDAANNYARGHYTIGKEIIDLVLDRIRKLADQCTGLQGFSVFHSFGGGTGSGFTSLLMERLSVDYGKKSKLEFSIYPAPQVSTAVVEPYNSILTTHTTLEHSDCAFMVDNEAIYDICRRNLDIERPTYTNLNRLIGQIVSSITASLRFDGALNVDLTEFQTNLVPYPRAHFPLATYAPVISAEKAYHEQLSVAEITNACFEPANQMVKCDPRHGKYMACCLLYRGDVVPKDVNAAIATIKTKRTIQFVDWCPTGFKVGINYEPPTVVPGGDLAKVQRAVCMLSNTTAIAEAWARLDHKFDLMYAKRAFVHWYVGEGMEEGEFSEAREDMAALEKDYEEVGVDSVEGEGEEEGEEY
T1 sequence (P02554 whole entry partner): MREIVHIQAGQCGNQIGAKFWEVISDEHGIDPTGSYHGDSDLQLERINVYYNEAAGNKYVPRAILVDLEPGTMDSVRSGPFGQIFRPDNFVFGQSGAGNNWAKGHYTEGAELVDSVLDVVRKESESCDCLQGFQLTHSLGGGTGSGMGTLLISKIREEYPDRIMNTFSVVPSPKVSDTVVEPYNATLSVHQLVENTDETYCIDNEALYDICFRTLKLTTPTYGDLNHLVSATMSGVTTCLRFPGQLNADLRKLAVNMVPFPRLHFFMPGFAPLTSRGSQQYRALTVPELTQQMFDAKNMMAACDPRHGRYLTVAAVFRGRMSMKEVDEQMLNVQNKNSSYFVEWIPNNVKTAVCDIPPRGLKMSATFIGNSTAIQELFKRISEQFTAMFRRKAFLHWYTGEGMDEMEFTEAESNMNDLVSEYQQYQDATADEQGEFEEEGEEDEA
With `C[C@@H]1CN(c2cc(C(=O)Nc3ccc(S(=O)(=O)N[C@@H](C)CO)cc3N3CCC4(CC3)CC4)ccc2[N+](=O)[O-])CCO1` [Compound 63], the IC50 lay within 100 to 500 nM.

`CSc1ccc(NC(=O)c2ccc(NS(=O)(=O)CCO)cc2N2CCC3(CC2)CC3)cc1NC(C)(C)CO` [Compound 587]: the half-inhibitory concentration (IC50) was at most 100 nM.

Consider `C[C@H]1CN(c2nc(C(=O)Nc3ccc(NS(=O)(=O)CCO)cc3N3CCC4(CC3)CC4)ccc2[N+](=O)[O-])CCO1` [Compound 163], for which the IC50 was at most 100 nM.

Consider `CSc1ccc(NC(=O)c2cnc(NS(=O)(=O)CCO)cc2N2CCC3(CC2)CC3)cc1OC1CCC1` [Compound 615], for which the IC50 was at most 100 nM.

On to `O=C(Nc1cnc(S(=O)(=O)NCCO)cc1N1CCC2(CC1)CC2)c1ccc([N+](=O)[O-])c(N2CC3CC3C2)n1` (stereo not drawn) [Compound 250], for which the IC50 was in the range of 100 to 500 nM.

On to `CSc1ccc(NC(=O)c2ccc(NS(=O)(=O)CCO)cc2N2CCC3(CC2)CC3)cc1N1CCC(F)(F)CC1` [Compound 577], for which the IC50 is at most 100 nM.

In the case of `COc1ccc(C(=O)Nc2ccc(NS(=O)(=O)[C@@H](C)CO)cc2N2CCC3(CC2)CC3)nc1N1CCO[C@H](C)C1` [Compound 335], the 50% inhibitory concentration (IC50) was at most 100 nM.

`O=C(Nc1ccc(S(=O)(=O)NCCO)cc1N1CCC2(CC1)CC2)c1ccc([N+](=O)[O-])c(N2CCOCC2)c1` [Compound 60]: the IC50 lay in the range of 100 to 500 nM.

With `O=C(Nc1cnc(S(=O)(=O)NCCO)cc1N1CCC2(CC1)CC2)c1ccc([N+](=O)[O-])c(OCCC(F)(F)F)n1` [Compound 245], the IC50 lay within 100 to 500 nM.

With `C[C@H](CO)NS(=O)(=O)c1ccc(C(=O)Nc2ccc([N+](=O)[O-])c(N3CCC(F)(F)CC3)n2)c(N2CCC3(CC2)CC3)c1` [Compound 94], the IC50 is at most 100 nM.

On to `COc1ccc(C(=O)Nc2cnc(NS(=O)(=O)CCO)cc2N2CCC3(CC2)CC3)nc1N1CC(F)(F)C1` [Compound 356], for which the half-inhibitory concentration (IC50) is at most 100 nM.

Consider `O=C(Nc1cnc(NS(=O)(=O)CCO)cc1N1CCC2(CC1)CC2)c1ccc([N+](=O)[O-])c(N2CCC(F)(F)CC2)n1` [Compound 225], for which the IC50 was at most 100 nM.

`COc1ccc(NC(=O)c2ccc(S(=O)(=O)NCCO)cc2N2CCC3(CC2)CC3)nc1OCCC(F)(F)F` [Compound 277]: the IC50 was at most 100 nM.

On to `COc1ccc(NC(=O)c2cnc(S(=O)(=O)NCCO)cc2N2CCC3(CC2)CC3)nc1NC(C)(C)CO` [Compound 315], for which the IC50 is at most 100 nM.

`O=C(Nc1ccc(NS(=O)(=O)CCO)cc1N1CCC2(CC1)CC2)c1ccc([N+](=O)[O-])c(OC2CCC2)c1` [Compound 39]: the IC50 is at most 100 nM.

Take `O=C(Nc1ccc(OCF)c(N2CCC(F)(F)CC2)c1)c1ccc(S(=O)(=O)NCCO)cc1N1CCC2(CC1)CC2` [Compound 401]: the IC50 was at most 100 nM.

Turning to `O=C(Nc1ccc(OCF)c(N2CCC3(CC3)C2)c1)c1cnc(S(=O)(=O)NCCO)cc1N1CCC2(CC1)CC2` [Compound 470], the IC50 was at most 100 nM.

Consider `COc1ccc(C(=O)Nc2cnc(S(=O)(=O)NCCO)cc2N2CCC3(CC2)CC3)nc1N1CCO[C@H](C)C1` [Compound 370], for which the IC50 was at most 100 nM.

On to `O=C(Nc1cnc(NS(=O)(=O)CCO)cc1N1CCC2(CC1)CC2)c1ccc([N+](=O)[O-])c(OCCC(F)(F)F)n1` [Compound 229], for which the IC50 is at most 100 nM.

As to `COc1ccc(C(=O)Nc2ccc(NS(=O)(=O)CCO)cc2N2CCC3(CC2)CC3)nc1N1CCO[C@H](C)C1` [Compound 322], the IC50 was at most 100 nM.

In the case of `C[C@@H]1CN(c2nc(NC(=O)c3cnc(NS(=O)(=O)[C@H](C)CO)cc3N3CCC4(CC3)CC4)ccc2[N+](=O)[O-])CCO1` [Compound 144], the IC50 was at most 100 nM.

`O=C(Nc1ccc(OCF)c(OC2CCC2)n1)c1cnc(NS(=O)(=O)CCO)cc1N1CCC2(CC1)CC2` [Compound 487]: the 50% inhibitory concentration (IC50) was at most 100 nM.

On to `O=C(Nc1ccc(OCF)c(N2CCOCC2)c1)c1cnc(S(=O)(=O)NCCO)cc1N1CCC2(CC1)CC2` [Compound 476], for which the IC50 is at most 100 nM.

Turning to `C[C@@H]1CN(c2nc(C(=O)Nc3ccc(S(=O)(=O)NCCO)cc3N3CCC4(CC3)CC4)ccc2OCF)CCO1` [Compound 562], the IC50 was 100 to 500 nM.

On to `C[C@H]1CN(c2nc(C(=O)Nc3cnc(S(=O)(=O)NCCO)cc3N3CCC4(CC3)CC4)ccc2[N+](=O)[O-])CCO1` [Compound 243], for which the IC50 lay in the range of 100 to 500 nM.

Take `COc1ccc(C(=O)Nc2cnc(S(=O)(=O)N[C@@H](C)CO)cc2N2CCC3(CC2)CC3)nc1N1CCO[C@H](C)C1` [Compound 383]: the half-inhibitory concentration (IC50) is at most 100 nM.

Consider `C[C@@H]1CN(c2cc(C(=O)Nc3ccc(S(=O)(=O)NCCO)cc3N3CCC4(CC3)CC4)ccc2[N+](=O)[O-])CCO1` [Compound 50], for which the IC50 is 100 to 500 nM.

For the compound `COc1ccc(C(=O)Nc2cnc(NS(=O)(=O)CCO)cc2N2CCC3(CC2)CC3)nc1N1CCC(F)CC1` [Compound 361], the half-maximal inhibitory concentration (IC50) was at most 100 nM.

For the compound `CC1(F)CCN(c2nc(C(=O)Nc3cnc(S(=O)(=O)NCCO)cc3N3CCC4(CC3)CC4)ccc2[N+](=O)[O-])C1` (stereo not drawn) [Compound 248], the concentration for half-maximal inhibition (IC50) was in the range of 100 to 500 nM.

As for `COc1ccc(NC(=O)c2cnc(NS(=O)(=O)[C@@H](C)CO)cc2N2CCC3(CC2)CC3)nc1N1CCC(F)(F)CC1` [Compound 301], the IC50 is at most 100 nM.

As to `O=C(Nc1cnc(NS(=O)(=O)CCO)cc1N1CCC2(CC1)CC2)c1ccc([N+](=O)[O-])c(OC2CCC2)c1` [Compound 199], the IC50 was at most 100 nM.

For `C[C@@H]1CN(c2cc(C(=O)Nc3ccc(NS(=O)(=O)[C@@H](C)CO)cc3N3CCC4(CC3)CC4)ccc2[N+](=O)[O-])CCO1` [Compound 47], the IC50 was in the range of 100 to 500 nM.

For `CC(C)(CO)Nc1nc(C(=O)Nc2ccc(S(=O)(=O)NCCO)cc2N2CCC3(CC2)CC3)ccc1[N+](=O)[O-]` [Compound 187], the IC50 fell in the range of 100 to 500 nM.

Regarding `O=C(Nc1ccc(S(=O)(=O)NCCO)cc1N1CCC2(CC1)CC2)c1ccc([N+](=O)[O-])c(N2CC3CC3C2)c1` (stereo not drawn) [Compound 58], the IC50 fell in the range of 100 to 500 nM.

As for `CC(C)(CO)Nc1cc(C(=O)Nc2cnc(S(=O)(=O)NCCO)cc2N2CCC3(CC2)CC3)ccc1[N+](=O)[O-]` [Compound 219], the IC50 is 100 to 500 nM.

On to `O=C(Nc1cnc(NS(=O)(=O)CCO)cc1N1CCC2(CC1)CC2)c1ccc([N+](=O)[O-])c(N2CCC(F)(F)CC2)c1` [Compound 193], for which the IC50 is at most 100 nM.

Turning to `C[C@H](CO)S(=O)(=O)Nc1cc(N2CCC3(CC2)CC3)c(C(=O)Nc2ccc([N+](=O)[O-])c(N3CCC(F)(F)CC3)c2)cn1` [Compound 110], the IC50 was at most 100 nM.

With `C[C@H](CO)NS(=O)(=O)c1cc(N2CCC3(CC2)CC3)c(C(=O)Nc2ccc(OCF)c(N3CCC(F)(F)CC3)n2)cn1` [Compound 510], the IC50 is at most 100 nM.

For the compound `O=C(Nc1ccc(OCF)c(N2CCC3(CC3)C2)n1)c1cnc(S(=O)(=O)NCCO)cc1N1CCC2(CC1)CC2` [Compound 502], the IC50 was at most 100 nM.

For `C[C@@H](CO)S(=O)(=O)Nc1ccc(C(=O)Nc2ccc([N+](=O)[O-])c(N3CCC(F)(F)CC3)n2)c(N2CCC3(CC2)CC3)c1` [Compound 77], the IC50 is at most 100 nM.

In the case of `O=C(Nc1ccc(S(=O)(=O)NCCO)cc1N1CCC2(CC1)CC2)c1ccc(OCF)c(N2CCC3(CC3)C2)c1` [Compound 534], the IC50 is 100 to 500 nM.

As to `O=C(Nc1cnc(NS(=O)(=O)CCO)cc1N1CCC2(CC1)CC2)c1ccc([N+](=O)[O-])c(N2CCC3(CC3)C2)n1` [Compound 230], the IC50 was at most 100 nM.

On to `C[C@@H]1CN(c2nc(NC(=O)c3ccc(NS(=O)(=O)[C@H](C)CO)cc3N3CCC4(CC3)CC4)ccc2[N+](=O)[O-])CCO1` [Compound 80], for which the concentration for half-maximal inhibition (IC50) is at most 100 nM.

On to `COc1ccc(NC(=O)c2ccc(NS(=O)(=O)[C@@H](C)CO)cc2N2CCC3(CC2)CC3)nc1N1CCO[C@H](C)C1` [Compound 271], for which the half-inhibitory concentration (IC50) was at most 100 nM.

For the compound `O=C(Nc1ccc([N+](=O)[O-])c(N2CC(F)(F)C2)c1)c1cnc(NS(=O)(=O)CCO)cc1N1CCC2(CC1)CC2` [Compound 100], the IC50 was at most 100 nM.

`CC1(F)CCN(c2cc(C(=O)Nc3ccc(S(=O)(=O)NCCO)cc3N3CCC4(CC3)CC4)ccc2[N+](=O)[O-])C1` (stereo not drawn) [Compound 56]: the IC50 lay in the range of 100 to 500 nM.

`CC1(F)CCN(c2cc(C(=O)Nc3ccc(S(=O)(=O)NCCO)cc3N3CCC4(CC3)CC4)ccc2OCF)C1` (stereo not drawn) [Compound 536]: the IC50 fell in the range of 100 to 500 nM.

On to `COc1ccc(C(=O)Nc2ccc(NS(=O)(=O)CCO)cc2N2CCC3(CC2)CC3)nc1N1CCC(F)CC1` [Compound 329], for which the IC50 was at most 100 nM.

As for `C[C@H](CO)NS(=O)(=O)c1ccc(NC(=O)c2ccc(OCF)c(N3CCO[C@H](C)C3)c2)c(N2CCC3(CC2)CC3)c1` [Compound 544], the IC50 was 100 to 500 nM.

For the compound `O=C(Nc1cnc(S(=O)(=O)NCCO)cc1N1CCC2(CC1)CC2)c1ccc([N+](=O)[O-])c(OC2CCC2)n1` [Compound 247], the IC50 fell in the range of 100 to 500 nM.

For `CC1(F)CCN(c2cc(C(=O)Nc3cnc(NS(=O)(=O)CCO)cc3N3CCC4(CC3)CC4)ccc2[N+](=O)[O-])C1` (stereo not drawn) [Compound 200], the IC50 was at most 100 nM.

As for `O=C(Nc1ccc([N+](=O)[O-])c(N2CCOCC2)c1)c1ccc(S(=O)(=O)NCCO)cc1N1CCC2(CC1)CC2` [Compound 28], the IC50 was at most 100 nM.

Take `O=C(Nc1ccc(S(=O)(=O)NCCO)cc1N1CCC2(CC1)CC2)c1ccc([N+](=O)[O-])c(N2CC(F)(F)C2)n1` [Compound 180]: the IC50 was in the range of 100 to 500 nM.

Turning to `O=C(Nc1ccc(NS(=O)(=O)CCO)cc1N1CCC2(CC1)CC2)c1ccc(OCF)c(N2CCC(F)(F)CC2)c1` [Compound 513], the IC50 was at most 100 nM.

As for `CSc1ccc(NC(=O)c2cnc(NS(=O)(=O)CCO)cc2N2CCC3(CC2)CC3)nc1N1CCC(C)(F)C1` (stereo not drawn) [Compound 632], the IC50 is at most 100 nM.

`C[C@H](CO)NS(=O)(=O)c1ccc(NC(=O)c2ccc(OCF)c(N3CCO[C@H](C)C3)n2)c(N2CCC3(CC2)CC3)c1` [Compound 576]: the IC50 was 100 to 500 nM.

Turning to `O=C(Nc1ccc(S(=O)(=O)NCCO)cc1N1CCC2(CC1)CC2)c1ccc(OCF)c(OCCC(F)(F)F)c1` [Compound 533], the IC50 was in the range of 100 to 500 nM.

These data come from patent publication US20260158017A1, “KIF18A INHIBITOR” (WIGEN BIOMEDICINE TECHNOLOGY (SHANGHAI) CO., LTD., priority 2021, published 2026).
